Measurements from patent US7109170B2, “Region of factor IXa protease domain that interacts with factor VIIIa and methods therefor” (Saint Louis University, priority 1999, dated 2006).

What was measured:
Type in all cases: biochemical
[1] = tested on: Factor IX deficient plasma; assay: relative coagulant activity of factor IX proteins (zymogens); conditions: for relative coagulant activity: factor IX proteins before activation, IXNP = 100%
Text: The following reagents were used. Benzoyl-Ile-Glu-Gly-Arg-p-nitroanilide (SEQ ID NO: 17) (S-2222) was purchased from Helena Laboratories. Dansyl-Glu-Gly-Arg-chloromethyl ketone (DEGR-ck) was obtained from Calbiochem. Phosphatidylcholine, phosphatidylserine, recombinant hirudin, and fatty acid free bovine serum albumin (BSA) were obtained from Sigma Chemical Co. Factor IX and factor VIII deficient plasmas were purchased from George King Biomedicals and aPTT reagent was obtained from Diagnostica Stago. Normal human plasma factor IX (IXNP) and factor X were isolated as described in Bajaj and Birktoft, 1993, Methods Enzymol. 222, 96–128, and factor Xa was prepared as described in Bajaj et al., 1981, Prep. Biochem. 11, 397–412. Purified human factor XIa, protein C, activated protein C, and α-thrombin (IIa) were purchased from Enzyme Research Laboratories (South Bend, Ind.). Recombinant human tissue factor of aa 1–243 containing the transmembrane domain was generously provided by Genentech Inc. (South San Francisco, Calif.) and reconstituted as described in Sabharwal et al., 1995, J. Biol. Chem. 270, 15523–15530. Phosphatidylcholine-phosphatidylserine vesicles (75% phosphatidylcholine, 25% phosphatidylserine) were prepared by the method of Husten et al., 1987, J. Biol. Chem. 262, 12953–12966 as outlined in Sabharwal et al (Id.). Recombinant human factor VIIa was a generous gift of Novo-Nordisk (Copenhagen). Purified human factor VIII was obtained from Dr. Leon Hoyer (American Red Cross, Rockville, Md.). The preparation was free of all other coagulation factors and contained human albumin as a stabilizing agent. Purification of a mouse monoclonal antibody (mAb) that inhibits the interaction of factor IXa with factor VIIIa was as described in Bajaj et al., 1985, J. Biol. Chem. 260:11574–11580. […]

factor X [2] = molecular target: T1, factor X (Homo sapiens, UniProt P00742); assay: factor X activation in complete intrinsic Tenase system (IXa, Ca2+, phospholipid, VIIIa); set-up: Normal human plasma factor IX (IXNP) and factor X were isolated as described in Bajaj and Birktoft; from tissue; host or cells: human plasma (factor X); factor VIII obtained from Dr. Leon Hoyer, American Red Cross; conditions: phospholipid present; for rate of factor X activation at increased VIIIa: VIIIa increased from 70 pM to 14 nM
Protocol: (§1) The ability of each activated mutant to activate factor X in the presence and absence of phospholipid and factor VIIIa was determined as follows. The activation was carried out at 37° C. in a 50 μl reaction volume, in TBS/BSA pH 7.4, for various time periods. At the end of the incubation time period, each reaction mixture received 1 μl of 0.5 M EDTA to stop further generation of factor Xa. A 40 μL aliquot was then added to 0.1 ml quartz cuvette containing S-2222 in 75 μL of TBS/BSA, pH 7.4. The final concentration of S-2222 was 100 μM. The p-nitroaniline release was measured continuously (ΔA405/min) for up to 20 min (Sabharwal et al., 1995 supra; Sabharwal et al., 1997, supra). Factor Xa generated was calculated from a standard curve constructed using factor Xa prepared from insolubilized Russell's viper venom.
(§2) Factor X activation measurements were made under four experimental regimes. In one, Ca^2+ and phospholipid were present. In this system activation was carried out for 5–15 minutes and the concentration of each IXa protein was 20 nM, phospholipid was 25 μM, and factor X was 100 nM. In the second regime, Ca^2+, phospholipid and factor VIIIa were present. […] In the third regime, only Ca^2+ was present. Here, activation was carried out for 2–20 min and concentration of each IXa protein was 400 nM and factor X was 1 μM. Finally, in the fourth regime, Ca^2+ and VIIIa were present. Here, activation was carried out for 15–120 sec and the concentration of each IXa protein was 2 μM, VIIIa was 14 nM, and factor X was 400 nM.
(§3) In all of the above factor X activation experiments, the incubation times chosen were those in which the factor Xa generated was always less than 10 nM. This precautionary measure was taken to prevent activation of factor X by the generated factor Xa (see, e.g., Link. and Castellino, 1982, Arch Biochem. Biophys. 215, 215–221). Further, in those incubation mixtures which contained […], control experiments were also performed in which factor VIIIa was omitted. […] In the presence of factor VIIIa, 10 μM phospholipid was used based upon previous observations (Mathur et al., 1997, supra; van Dieijen et al., 1981, J. Biol. Chem. 256, 3433–3442). The concentrations of factor X selected for each set of reaction conditions are those which are below or at the Km values (van Dieijen et al., supra; Fay and Koshibu, 1998, J Biol. Chem. 273, 19049–19054). In this region of the Michaelis-Menton curve, the rate of formation of factor Xa is proportional to the substrate factor X and therefore to the affinity of the factor IXa enzyme for factor X.
Next, the activation of factor X in a complete intrinsic Tenase system (IXa, Ca^2+, phospholipid, VIIIa) was studied.

[3] = tested on: Factor IX deficient plasma; assay: coagulant activity of XIa-activated IXa proteins
factor X [4] = molecular target: T1, factor X; assay: factor X activation by IXa proteins, Ca2+ and VIIIa, no phospholipid; set-up: Normal human plasma factor IX (IXNP) and factor X were isolated as described in Bajaj and Birktoft; from tissue; host or cells: human plasma (factor X); factor VIII obtained from Dr. Leon Hoyer, American Red Cross; conditions: 14 nM VIIIa, 400 nM factor X
Protocol: as §1, §2, §3

factor VIIIa [5] = molecular target: T2, factor VIIIa (Homo sapiens, UniProt P00451); assay: inhibition of Xa generation by active site-blocked (DEGR) IXa proteins, absence of phospholipid (Kd,app for VIIIa); conditions: absence of phospholipid
T2 construct: purchased Dr. Leon Hoyer (American Red Cross, Rockville, Md.)
T2 sequence (P00451 20-759 limits assumed): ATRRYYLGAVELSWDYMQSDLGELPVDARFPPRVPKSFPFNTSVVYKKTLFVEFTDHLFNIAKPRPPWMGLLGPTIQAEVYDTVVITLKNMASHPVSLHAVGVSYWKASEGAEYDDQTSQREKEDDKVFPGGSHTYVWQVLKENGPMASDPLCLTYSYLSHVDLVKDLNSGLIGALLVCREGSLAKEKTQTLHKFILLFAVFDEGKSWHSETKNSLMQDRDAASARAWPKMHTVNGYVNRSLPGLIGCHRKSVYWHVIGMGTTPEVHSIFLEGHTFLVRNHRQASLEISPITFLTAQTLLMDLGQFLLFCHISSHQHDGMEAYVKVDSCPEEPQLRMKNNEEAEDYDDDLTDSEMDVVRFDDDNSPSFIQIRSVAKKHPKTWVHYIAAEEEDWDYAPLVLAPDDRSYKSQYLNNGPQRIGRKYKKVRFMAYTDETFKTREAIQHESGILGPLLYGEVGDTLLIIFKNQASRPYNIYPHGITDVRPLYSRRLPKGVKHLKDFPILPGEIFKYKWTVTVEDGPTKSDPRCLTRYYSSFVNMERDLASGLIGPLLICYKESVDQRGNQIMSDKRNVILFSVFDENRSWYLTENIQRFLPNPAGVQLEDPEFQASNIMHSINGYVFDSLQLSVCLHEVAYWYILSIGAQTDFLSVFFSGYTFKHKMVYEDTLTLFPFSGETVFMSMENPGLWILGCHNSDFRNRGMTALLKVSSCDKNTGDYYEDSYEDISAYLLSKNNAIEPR
T2 sequence (P00451 1668-2351 limits assumed): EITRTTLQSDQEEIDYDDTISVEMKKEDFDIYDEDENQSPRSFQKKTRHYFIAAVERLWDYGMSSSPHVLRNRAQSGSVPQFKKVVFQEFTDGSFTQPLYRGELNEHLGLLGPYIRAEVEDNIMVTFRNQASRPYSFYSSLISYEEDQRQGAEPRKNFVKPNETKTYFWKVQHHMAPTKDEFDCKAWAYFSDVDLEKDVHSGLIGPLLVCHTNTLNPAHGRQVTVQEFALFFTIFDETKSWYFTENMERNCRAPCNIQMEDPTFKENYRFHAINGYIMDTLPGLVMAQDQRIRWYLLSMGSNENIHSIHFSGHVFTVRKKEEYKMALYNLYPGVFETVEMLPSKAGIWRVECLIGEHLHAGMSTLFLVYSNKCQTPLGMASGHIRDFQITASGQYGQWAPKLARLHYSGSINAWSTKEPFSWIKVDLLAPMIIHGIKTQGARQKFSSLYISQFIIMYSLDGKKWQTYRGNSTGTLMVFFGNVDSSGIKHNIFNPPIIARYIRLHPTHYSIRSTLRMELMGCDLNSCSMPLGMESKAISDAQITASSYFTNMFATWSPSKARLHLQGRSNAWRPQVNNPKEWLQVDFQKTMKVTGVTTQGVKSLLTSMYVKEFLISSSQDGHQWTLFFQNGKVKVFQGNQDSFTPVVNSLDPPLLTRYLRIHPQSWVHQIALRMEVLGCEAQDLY
Protocol: (§4) Apparent Kds of factor VIIIa binding to various active site-blocked factor IXa proteins were determined from inhibition experiments as detailed in Mathur et al., 1997, supra. […] Reactions were carried out for 2 min and the rates of factor X activation were measured as outlined above.
(§5) Various DEGR-ck-inhibited factor IXa proteins were prepared for these experiments as follows. IXNP, IXWT, and each mutant factor IX at 200 μg/ml was activated by factor XIa (2 μg/ml) for 90 min. in TBS, pH 7.4 (0.05 M Tris, 0.15 M NaCl, pH 7.4) containing 5 mM Ca^2+.
(§6) Enzymol. 74, 481–508 given below:
(§7) [formula] where y is the rate of Xa formation in the presence of a given concentration of DEGR-IXa protein represented by x, a is the maximum rate of Xa formation in the absence of DEGR-IXa, and s is the slope factor. Each point was weighted equally and the data were fitted to Equation 1 using the nonlinear regression analysis program obtained from Erithacus Software (GraFit). […] To obtain the Kd,app values for the interaction of DEGR-IXa proteins with factor VIIIa, the following equation was used, as described by Cheng and Prusoff, 1973, Biochem. Pharmacol. 22, 3099–3108 and further discussed by Craig, 1993, Trends Pharmacol. Sci. 6, 68–71.

factor VIIIa [6] = molecular target: T2, factor VIIIa; assay: inhibition of Xa generation by active site-blocked (DEGR) IXa proteins, presence of phospholipid (Kd,app for VIIIa); conditions: presence of phospholipid
Protocol: as §4, §5, §6, §7

T1 sequence (P00742 183-488 limits assumed, one chain of several): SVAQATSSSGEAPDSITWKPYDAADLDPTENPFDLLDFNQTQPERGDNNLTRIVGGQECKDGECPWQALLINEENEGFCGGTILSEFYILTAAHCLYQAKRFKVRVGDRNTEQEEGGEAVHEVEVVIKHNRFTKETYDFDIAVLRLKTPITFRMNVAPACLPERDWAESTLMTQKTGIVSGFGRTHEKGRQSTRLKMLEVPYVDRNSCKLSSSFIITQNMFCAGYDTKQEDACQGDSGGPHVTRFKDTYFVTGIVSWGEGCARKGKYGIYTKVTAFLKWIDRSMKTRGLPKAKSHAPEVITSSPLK
T1 sequence (P00742 41-179 limits assumed, one chain of several): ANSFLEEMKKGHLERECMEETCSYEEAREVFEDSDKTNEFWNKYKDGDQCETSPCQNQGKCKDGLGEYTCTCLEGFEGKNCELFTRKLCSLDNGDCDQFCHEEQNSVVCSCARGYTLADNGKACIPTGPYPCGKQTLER

Substance	relative coagulant activity [1]	coagulant activity as compared to IXaNP [3]	also measured
IXL337I: recombinant factor IX point mutant L337I	~1%	–	–
IXL3301: recombinant factor IX point mutant L330I in helix-330 of protease domain	~8%	–	–
IXaD332Y: activated factor IX mutant D332Y	–	~2%	rate of factor X activation at increased VIIIa (factor X [2]): ~4.1 nM/min
IXNP: Normal human plasma factor IX	100%	–	coagulant activity (specific) ([1]; plasma factor IX): 180±10 units/mg
IXaR333L: activated factor IX mutant R333L	–	~0.4%	rate of factor X activation at increased VIIIa (factor X [2]): ~2.7 nM/min
IXT335A: recombinant factor IX point mutant T335A	~40%	–	–
IXaL330I: activated factor IX mutant L330I	–	~7%	X-activation rate, PL-minus system (factor X [4]): 0.94 ± 0.03 nM/min; X-activation rate, PL-plus system (factor X [2]; 70 pM VIIIa, 0.5 nM IXa, 15 nM X): 0.95 ± 0.07 nM/min
IXaWT: factor XIa-activated recombinant wild-type factor IX [reference compound]	–	~95%	–
protein C: Purified human protein C, control protein [reference compound]	–	–	competition with IXa in binding to VIIIa / interaction with VIIIa (factor VIIIa [5]): neither protein C nor DEGR-activated protein C competed with IXa in binding to VIIIa; competition with IXa in binding to VIIIa / interaction with VIIIa (factor VIIIa [6]): neither protein C nor DEGR-activated protein C competed with IXa in binding to VIIIa
IXR338Q: recombinant factor IX point mutant R338Q	~65%	–	–
IXaR338Q: activated factor IX mutant R338Q	–	~80%	X-activation rate, PL-minus system (factor X [4]): 2.22 ± 0.15 nM/min
IXaR333Q: activated factor IX mutant R333Q	–	~0.6%	rate of factor X activation at increased VIIIa (factor X [2]): ~2.4 nM/min
IXahelixVII: activated factor IX chimera with helix 330–338 replaced by factor VII residues	–	not measurable	rate of factor X activation at increased VIIIa (factor X [2]): not measurable
IXaL337I: activated factor IX mutant L337I	–	~0.8%	rate of factor X activation at increased VIIIa (factor X [2]): ~3.2 nM/min
IXWT: recombinant wild-type factor IX [reference compound]	~90%	–	–
IXR333L: recombinant factor IX point mutant R333L	0.3%	–	–
IXD332Y: recombinant factor IX point mutant D332Y	~2%	–	–
IXR333Q: recombinant factor IX point mutant R333Q	~0.5%	–	–
